# Where two headings read alike, the source gives them in different places.
# Legend:
# [1] = test system: Bacteroides fragilis GM 7000; assay: MIC, in vitro antibacterial activity (standard strains); assay type: cell-based; settings: GM7000; Bacteroides fragilis GM 7000, 10^6 cells/ml, Gram -
# Bacteroides sp. = assay: MIC, in vitro antibacterial activity (clinical isolates); assay type: cell-based; settings: No. of strains 17
# Bacteroides fragilis 2 = assay: Experimental local infection with anaerobic bacteria in granuloma pouches in rats; assay type: in vivo; settings: 25 mg/kg, p.o., pouch exudate, Mean ± S.D. (n=3)
# Description: Under ether anesthesia, male Wistar rats (7 weeks old) were injected subcutaneously on the back with 20 ml of germ-free air (sterilized by membrane filtration, 0.45 µm pore size) by means of a syringe. Continuously, an inflammatory reaction was induced by injecting one ml of sterile croton oil solution (1 % in olive oil) into the formed air pouch. After 2 days, the air was removed. On the eighth day, 0.5 ml of Bacteroides fragilis 2 culture (10^6 CFU/ml) were injected into bore granuloma pouches. Each compound was administered orally or subcutaneously at 2 hours after infection. […] During experiment, intake of food and water was free. It was known that the activity of the existing quinolonecarboxylic acid compounds against obligate anaerobic bacteria was very weak. […] This property is also one of excellent characters of the present comound.
# C. perfringens KYA 13123 = assay: microbe, parasite or virus in culture; assay type: cell-based; settings: Clostridium perfringens, KYA13123
# [2] = test system: Eubacterium lentum GAI 5242; assay: MIC, in vitro antibacterial activity (standard strains); assay type: cell-based; settings: Eggerthella lenta, GAI5242; Eubacterium lentum GAI 5242, 10^6 cells/ml, Gram +
# P. mirabilis IID 994 = assay: as above; assay type: cell-based; settings: Proteus mirabilis, IID994
# [3] = test system: Pseudomonas aeruginosa V-1; assay: as above; assay type: cell-based; settings: V1; Pseudomonas aeruginosa V-1, 10^6 cells/ml, Gram -
# [4] = test system: Alcaligenes faecalis 0104002; assay: as above; assay type: cell-based; settings: Alcaligenes faecalis 0104002, 10^6 cells/ml, Gram -; read-out: MIC
# P. maltophilia = assay: MIC, in vitro antibacterial activity (clinical isolates); assay type: cell-based; settings: Stenotrophomonas maltophilia, No. of strains 9
# Acinetobacter sp. = assay: as above; assay type: cell-based; settings: clinical isolates Acinetobacter sp., No. of strains 13; read-out: MIC
# C. ramosum = assay: MIC, in vitro antibacterial activity (standard strains); assay type: cell-based; settings: Thomasclavelia ramosa, 10^6 cells/ml, Gram +
# [5] = test system: Proteus vulgaris IFO 3167; assay: as above; assay type: cell-based; settings: Proteus vulgaris, IFO3167
# [6] = test system: Peptostreptococcus anaerobius KYA 27337; assay: as above; assay type: cell-based; settings: KYA27337; Peptostreptococcus anaerobius KYA 27337, 10^6 cells/ml, Gram +
# S. aureus 209 P = assay type: cell-based
# S. marcescens = assay: MIC, in vitro antibacterial activity (clinical isolates); assay type: cell-based; settings: Serratia marcescens, No. of strains 20
# E. faecalis = assay: as above; assay type: cell-based; settings: Enterococcus faecalis, No. of strains 5
# B. catarrhalis = assay: as above; assay type: cell-based; settings: Moraxella catarrhalis; clinical isolates B. catarrhalis, No. of strains 21; read-out: MIC
# [7] = test system: Yersinia enterocolitica IID 981; assay: MIC, in vitro antibacterial activity (standard strains); assay type: cell-based; settings: IID981; Yersinia enterocolitica IID 981, 10^6 cells/ml, Gram -
# P. aeruginosa = assay: MIC, in vitro antibacterial activity (clinical isolates); assay type: cell-based; settings: Pseudomonas aeruginosa; clinical isolates P. aeruginosa, No. of strains 27; read-out: MIC
# S. pyogenes IID 692 = assay: MIC, in vitro antibacterial activity (standard strains); assay type: cell-based; settings: Streptococcus pyogenes, IID692; S. pyogenes IID 692, 10^6 cells/ml, Gram +
# [8] = test system: Veillonella parvula KYA 10790; assay: as above; assay type: cell-based; settings: KYA10790; Veillonella parvula KYA 10790, 10^6 cells/ml, Gram -
# P. aeruginosa IFO 12689 [9] = assay type: cell-based
# S. aureus Smith = assay type: cell-based; settings: Conc. of Drugs 2MIC
# B. fragilis 25285 = assay: MIC, in vitro antibacterial activity (standard strains); assay type: cell-based; settings: Bacteroides fragilis; B. fragilis 25285, 10^6 cells/ml, Gram -
# P. aeruginosa IFO 12689 [10] = assay: as above; assay type: cell-based; settings: Pseudomonas aeruginosa, IFO12689; P. aeruginosa IFO 12689, 10^6 cells/ml, Gram -
# [11] = test system: Citrobacter freundii IID 976; assay: as above; assay type: cell-based; settings: IID976
# P. mirabilis = assay: MIC, in vitro antibacterial activity (clinical isolates); assay type: cell-based; settings: Proteus mirabilis, No. of strains 10
# K. pneumoniae 1-220S = assay: MIC, in vitro antibacterial activity (standard strains); assay type: cell-based; settings: Klebsiella pneumoniae, 1220S; K. pneumoniae 1-220S, 10^6 cells/ml, Gram -; read-out: MIC
# P. aeruginosa IFO 1210 = assay type: cell-based
# S. pneumoniae = assay: MIC, in vitro antibacterial activity (clinical isolates); assay type: cell-based; settings: Streptococcus pneumoniae; clinical isolates S. pneumoniae, No. of strains 6; read-out: MIC
# Pst. microns UPI 5464-1 = assay: MIC, in vitro antibacterial activity (standard strains); assay type: cell-based; settings: Pst. microns UPI 5464-1, 10^6 cells/ml, Gram +
# N. gonorrhoeae = assay: MIC, in vitro antibacterial activity (clinical isolates); assay type: cell-based; settings: Neisseria gonorrhoeae, No. of strains 16
# S. epidermidis IID 866 = assay: MIC, in vitro antibacterial activity (standard strains); assay type: cell-based; settings: Staphylococcus epidermidis, IID866; S. epidermidis IID 866, 10^6 cells/ml, Gram +
# [12] = P. aeruginosa IFO 12689, Conc. of Drugs 2MIC
# [13] = P. aeruginosa IFO 12689, Conc. of Drugs 4MIC
# [14] = P. aeruginosa IFO 1210, Conc. of Drugs 2MIC
# [15] = P. aeruginosa IFO 1210, Conc. of Drugs 4MIC
Structure (SMILES),MIC [1] [µg/mL],MIC (Bacteroides sp.) [µg/mL],Viable cells count (log) / ml (Bacteroides fragilis 2; 6 hr),Viable cells count (log) / ml (Bacteroides fragilis 2; 24 hr),MIC (C. perfringens KYA 13123) [µg/mL],MIC [2] [µg/mL],MIC (P. mirabilis IID 994) [µg/mL],MIC [3] [µg/mL],MIC [4] [µg/mL],MIC (P. maltophilia) [µg/mL],MIC (Acinetobacter sp.) [µg/mL],MIC (C. ramosum) [µg/mL],MIC [5] [µg/mL],MIC [6] [µg/mL],Frequency of spontaneous resistant mutants (S. aureus 209 P; Conc. of Drugs 4MIC),MIC (S. marcescens) [µg/mL],MIC (E. faecalis) [µg/mL],MIC (B. catarrhalis) [µg/mL],MIC [7] [µg/mL],MIC (P. aeruginosa) [µg/mL],further results
"NC1CCN(c2c(F)cc3c(=O)c(C(=O)O)cn(C4CC4)c3c2Cl)C1 (stereo not drawn) [Example 25, 7-(3-Amino-l-pyrrolidinyl)-8-chloro-l-cyclopropyl-6-fluoro-1,4-dihydro-4-oxo-3-quinolinecarboxylic acid]",0.1,0.1,4.6 ± 0.31 (log) / ml,4.5 ± 0.15 (log) / ml,0.1,0.1,0.0125,0.2,0.05,0.78,0.1,0.78,0.0125,0.2,<2.9 × 10^-9,0.05,0.2,0.05,0.025,0.2,Frequency of spontaneous resistant mutants (S. aureus 209 P; Conc. of Drugs 2MIC): 2.9 × 10^-8; MIC (S. pyogenes IID 692): 0.1 µg/mL; MIC [8]: 0.05 µg/mL; Frequency of spontaneous resistant mutants (P. aeruginosa IFO 12689 [9]; [12]): 4.5 × 10^-8; Frequency of spontaneous resistant mutants (P. aeruginosa IFO 12689 [9]; [13]): <6.3 × 10^-10; Frequency of spontaneous resistant mutants (S. aureus Smith): <2.9 × 10^-9; MIC (B. fragilis 25285): 0.1 µg/mL; MIC (P. aeruginosa IFO 12689 [10]): 0.2 µg/mL; MIC ([11]; Citrobacter freundii): 0.0125 µg/mL; MIC (P. mirabilis): 0.05 µg/mL; MIC (K. pneumoniae 1-220S): 0.05 µg/mL; Frequency of spontaneous resistant mutants (P. aeruginosa IFO 1210; [14]): <6.7 × 10^-10; Frequency of spontaneous resistant mutants (P. aeruginosa IFO 1210; [15]): <6.7 × 10^-10; MIC (S. pneumoniae): 0.1 µg/mL; MIC (Pst. microns UPI 5464-1): 0.05 µg/mL; MIC (N. gonorrhoeae): 0.013 µg/mL; MIC (S. epidermidis IID 866): 0.05 µg/mL
"CC1CN(c2c(F)cc3c(=O)c(C(=O)O)cn(C4CC4)c3c2Cl)CCN1 (stereo not shown) [Ref.2, 8-Chloro-1-cyclopropyl-6-fluoro-1,4-dihydro-7-(3-methyl-1-piperazinyl)-4-oxo-3-quinolinecarboxylic acid]",0.39,0.39,5.1 ± 0.21 (log) / ml,4.5 ± 0.55 (log) / ml,0.39,0.2,0.0125,0.2,0.2,1.56,0.78,3.13,0.0125,0.78,5.1 × 10^-8,0.05,0.78,0.05,0.05,1.56,"MIC (S. pyogenes IID 692): 0.78 µg/mL; MIC [8]: 0.2 µg/mL; Frequency of spontaneous resistant mutants (P. aeruginosa IFO 12689 [9]; [12]): 5.5 × 10^-7; Frequency of spontaneous resistant mutants (P. aeruginosa IFO 12689 [9]; [13]): <6.3 × 10^-10; Frequency of spontaneous resistant mutants (S. aureus Smith): 3.6 × 10^-7; MIC (B. fragilis 25285): 0.39 µg/mL; MIC (P. aeruginosa IFO 12689 [10]): 1.56 µg/mL; MIC ([11]; Citrobacter freundii IID 976, 10^6 cells/ml, Gram -, read-out: MIC): 0.05 µg/mL; MIC (P. mirabilis): 0.05 µg/mL; MIC (K. pneumoniae 1-220S): 0.05 µg/mL; Frequency of spontaneous resistant mutants (P. aeruginosa IFO 1210; [14]): 7.7 × 10^-8; Frequency of spontaneous resistant mutants (P. aeruginosa IFO 1210; [15]): <6.7 × 10^-10; MIC (S. pneumoniae): 0.78 µg/mL; MIC (Pst. microns UPI 5464-1): 0.2 µg/mL; MIC (N. gonorrhoeae): 0.006 µg/mL; MIC (S. epidermidis IID 866): 0.1 µg/mL"

# Reference: EP0195316A1, “Quinolonecarboxylic acid derivatives” (KYORIN PHARMACEUTICAL CO., LTD., priority 1985, dated 1986)
